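Test compounds were applied to cells in 96-well plates for 48 hours at 5 doses. GI50 marks 50% less growth.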 Activity calls are given as the source filed them. No stated cut-off is given here; in the data, active = GI50 up to about 1.1 µM and inactive = higher.
How the values were obtained:
Assay in all cases: NCI anticancer screen, dose series, 48 h
786-0 = test system: 786-0
A498 = test system: A498
A549 = test system: A549
ACHN = test system: ACHN
BT-549 = test system: BT-549
CAKI-1 = test system: CAKI-1
CCRF-CEM = test system: CCRF-CEM
COLO 205 = test system: COLO 205
DU-145 = test system: DU-145
EKVX = test system: EKVX
HCC 2998 = test system: HCC 2998
HCT-116 = test system: HCT-116
HCT-15 = test system: HCT-15
HL-60 = test system: HL-60
HOP-62 = test system: HOP-62
HOP-92 = test system: HOP-92
HT-29 = test system: HT-29
Hs-578T = test system: Hs-578T
IGROV-1 = test system: IGROV-1
K562 = test system: K562
KM12 = test system: KM12
LOX IMVI = test system: LOX IMVI
M14 = test system: M14
MCF7 = test system: MCF7
MDA-MB-435 = test system: MDA-MB-435
MDA-N = test system: MDA-N
MOLT-4 = test system: MOLT-4
Malme-3M = test system: Malme-3M
NCI-H226 = test system: NCI-H226
NCI-H460 = test system: NCI-H460
NCI-H522 = test system: NCI-H522
NCI/ADR-RES = test system: NCI/ADR-RES
OVCAR-3 = test system: OVCAR-3
OVCAR-4 = test system: OVCAR-4
OVCAR-5 = test system: OVCAR-5
OVCAR-8 = test system: OVCAR-8
PC-3 = test system: PC-3
RPMI-8226 = test system: RPMI-8226
RXF 393 = test system: RXF 393
SF-268 = test system: SF-268
SF-295 = test system: SF-295
SF-539 = test system: SF-539
SK-MEL-28 = test system: SK-MEL-28
SK-MEL-2 = test system: SK-MEL-2
SK-MEL-5 = test system: SK-MEL-5
SN12C = test system: SN12C
SNB-19 = test system: SNB-19
SNB-75 = test system: SNB-75
SR = test system: SR
SW-620 = test system: SW-620
T47D = test system: T47D
TK-10 = test system: TK-10
U-251 = test system: U-251
UACC-257 = test system: UACC-257
UACC-62 = test system: UACC-62
UO-31 = test system: UO-31
NCI-H23 = test system: NCI-H23
SK-OV-3 = test system: SK-OV-3

SMILES: COC(=O)c1ccccc1/C=C1\Cc2cc(C)c(C)cc2C1=O
- GI50 (786-0): 54.8 µM (inactive)
- GI50 (A498): 73.3 µM (inactive)
- GI50 (A549): > 100 µM (inactive)
- GI50 (ACHN): > 100 µM (inactive)
- GI50 (BT-549): 34.5 µM (inactive)
- GI50 (CAKI-1): > 100 µM (inactive)
- GI50 (CCRF-CEM): > 100 µM (inactive)
- GI50 (COLO 205): > 100 µM (inactive)
- GI50 (DU-145): > 100 µM (inactive)
- GI50 (EKVX): > 100 µM (inactive)
- GI50 (HCC 2998): > 100 µM (inactive)
- GI50 (HCT-116): > 100 µM (inactive)
- GI50 (HCT-15): > 100 µM
- GI50 (HL-60): > 100 µM (inactive)
- GI50 (HOP-62): 30.4 µM (inactive)
- GI50 (HOP-92): 21.2 µM (inactive)
- GI50 (HT-29): > 100 µM (inactive)
- GI50 (Hs-578T): 40.7 µM (inactive)
- GI50 (IGROV-1): > 100 µM (inactive)
- GI50 (K562): > 100 µM (inactive)
- GI50 (KM12): > 100 µM (inactive)
- GI50 (LOX IMVI): > 100 µM (inactive)
- GI50 (M14): > 100 µM (inactive)
- GI50 (MCF7): > 100 µM (inactive)
- GI50 (MDA-MB-435): > 100 µM (inactive)
- GI50 (MDA-N): > 100 µM (inactive)
- GI50 (MOLT-4): > 100 µM (inactive)
- GI50 (Malme-3M): > 100 µM (inactive)
- GI50 (NCI-H226): 49 µM (inactive)
- GI50 (NCI-H460): > 100 µM (inactive)
- GI50 (NCI-H522): 73.8 µM (inactive)
- GI50 (NCI/ADR-RES): > 100 µM (inactive)
- GI50 (OVCAR-3): > 100 µM (inactive)
- GI50 (OVCAR-4): > 100 µM (inactive)
- GI50 (OVCAR-5): > 100 µM (inactive)
- GI50 (OVCAR-8): 55.7 µM (inactive)
- GI50 (PC-3): > 100 µM (inactive)
- GI50 (RPMI-8226): > 100 µM (inactive)
- GI50 (RXF 393): 89.1 µM (inactive)
- GI50 (SF-268): 40.3 µM (inactive)
- GI50 (SF-295): 49.3 µM (inactive)
- GI50 (SF-539): > 100 µM (inactive)
- GI50 (SK-MEL-28): > 100 µM (inactive)
- GI50 (SK-MEL-2): 14 µM (inactive)
- GI50 (SK-MEL-5): > 100 µM (inactive)
- GI50 (SN12C): > 100 µM (inactive)
- GI50 (SNB-19): 33.4 µM (inactive)
- GI50 (SNB-75): 26.5 µM (inactive)
- GI50 (SR): > 100 µM (inactive)
- GI50 (SW-620): > 100 µM (inactive)
- GI50 (T47D): > 100 µM (inactive)
- GI50 (TK-10): 36.9 µM (inactive)
- GI50 (U-251): 27.1 µM (inactive)
- GI50 (UACC-257): > 100 µM (inactive)
- GI50 (UACC-62): > 100 µM (inactive)
- GI50 (UO-31): 84.1 µM (inactive)

SMILES: O=C(O)CSCc1cc2c(O)c(c1)Cc1cc(CSCC(=O)O)cc(c1O)Cc1cc(CSCC(=O)O)cc(c1O)Cc1cc(CSCC(=O)O)cc(c1O)C2
- GI50 (786-0): > 100 µM (inactive)
- GI50 (A498): > 100 µM (inactive)
- GI50 (A549): > 100 µM (inactive)
- GI50 (ACHN): > 100 µM (inactive)
- GI50 (BT-549): 29 µM (inactive)
- GI50 (CAKI-1): > 100 µM (inactive)
- GI50 (CCRF-CEM): > 100 µM (inactive)
- GI50 (COLO 205): > 100 µM (inactive)
- GI50 (DU-145): > 100 µM (inactive)
- GI50 (EKVX): > 100 µM (inactive)
- GI50 (HCC 2998): > 100 µM (inactive)
- GI50 (HCT-116): > 100 µM (inactive)
- GI50 (HCT-15): > 100 µM
- GI50 (HL-60): > 100 µM (inactive)
- GI50 (HOP-62): > 100 µM (inactive)
- GI50 (HOP-92): > 100 µM (inactive)
- GI50 (HT-29): > 100 µM (inactive)
- GI50 (Hs-578T): > 100 µM (inactive)
- GI50 (IGROV-1): > 100 µM (inactive)
- GI50 (K562): > 100 µM (inactive)
- GI50 (KM12): > 100 µM (inactive)
- GI50 (LOX IMVI): > 100 µM (inactive)
- GI50 (M14): > 100 µM (inactive)
- GI50 (MCF7): > 100 µM (inactive)
- GI50 (MDA-MB-435): 61.1 µM (inactive)
- GI50 (MDA-N): > 100 µM (inactive)
- GI50 (MOLT-4): > 100 µM (inactive)
- GI50 (Malme-3M): > 100 µM (inactive)
- GI50 (NCI-H226): 89.5 µM (inactive)
- GI50 (NCI-H23): > 100 µM (inactive)
- GI50 (NCI-H460): > 100 µM (inactive)
- GI50 (NCI-H522): > 100 µM (inactive)
- GI50 (NCI/ADR-RES): > 100 µM (inactive)
- GI50 (OVCAR-3): > 100 µM (inactive)
- GI50 (OVCAR-4): > 100 µM (inactive)
- GI50 (OVCAR-5): > 100 µM (inactive)
- GI50 (OVCAR-8): > 100 µM (inactive)
- GI50 (PC-3): > 100 µM (inactive)
- GI50 (RPMI-8226): > 100 µM (inactive)
- GI50 (RXF 393): > 100 µM (inactive)
- GI50 (SF-268): > 100 µM (inactive)
- GI50 (SF-295): > 100 µM (inactive)
- GI50 (SF-539): > 100 µM (inactive)
- GI50 (SK-MEL-28): > 100 µM (inactive)
- GI50 (SK-MEL-2): > 100 µM (inactive)
- GI50 (SK-OV-3): > 100 µM (inactive)
- GI50 (SN12C): > 100 µM (inactive)
- GI50 (SNB-19): > 100 µM (inactive)
- GI50 (SR): > 100 µM (inactive)
- GI50 (SW-620): > 100 µM (inactive)
- GI50 (T47D): > 100 µM (inactive)
- GI50 (TK-10): > 100 µM (inactive)
- GI50 (U-251): > 100 µM (inactive)
- GI50 (UACC-257): > 100 µM (inactive)
- GI50 (UO-31): > 100 µM (inactive)

SMILES: CCOP(=O)(OCC)OC1CC(n2cnc3c(N(CC)CC)ncnc32)OC1CO[Si](C)(C)C(C)(C)C (configuration not stated)
- GI50 (786-0): 16.1 µM (inactive)
- GI50 (A549): 15.7 µM (inactive)
- GI50 (ACHN): 15.3 µM (inactive)
- GI50 (BT-549): 16.1 µM (inactive)
- GI50 (CAKI-1): 17.5 µM (inactive)
- GI50 (CCRF-CEM): 14.4 µM (inactive)
- GI50 (COLO 205): 18.5 µM (inactive)
- GI50 (DU-145): 15.5 µM (inactive)
- GI50 (EKVX): 5.86 µM (inactive)
- GI50 (HCC 2998): 23.2 µM (inactive)
- GI50 (HCT-116): 16.8 µM (inactive)
- GI50 (HCT-15): 21.4 µM
- GI50 (HL-60): 65 µM (inactive)
- GI50 (HOP-62): 19.7 µM (inactive)
- GI50 (HT-29): 16.6 µM (inactive)
- GI50 (Hs-578T): 22 µM (inactive)
- GI50 (IGROV-1): 16.9 µM (inactive)
- GI50 (K562): 17.8 µM (inactive)
- GI50 (KM12): 19.7 µM (inactive)
- GI50 (LOX IMVI): 16.2 µM (inactive)
- GI50 (M14): 18.8 µM (inactive)
- GI50 (MCF7): 21.8 µM (inactive)
- GI50 (MDA-MB-435): 17.3 µM (inactive)
- GI50 (MDA-N): 18 µM (inactive)
- GI50 (MOLT-4): 11.2 µM (inactive)
- GI50 (Malme-3M): 22.4 µM (inactive)
- GI50 (NCI-H226): 19.2 µM (inactive)
- GI50 (NCI-H23): 17 µM (inactive)
- GI50 (NCI-H460): 15 µM (inactive)
- GI50 (NCI-H522): 14.3 µM (inactive)
- GI50 (NCI/ADR-RES): 20.8 µM (inactive)
- GI50 (OVCAR-3): 20.3 µM (inactive)
- GI50 (OVCAR-4): 14.1 µM (inactive)
- GI50 (OVCAR-5): 19 µM (inactive)
- GI50 (OVCAR-8): 21.1 µM (inactive)
- GI50 (PC-3): 12.2 µM (inactive)
- GI50 (RPMI-8226): 28 µM (inactive)
- GI50 (RXF 393): 16.9 µM (inactive)
- GI50 (SF-268): 15.3 µM (inactive)
- GI50 (SF-295): 16.7 µM (inactive)
- GI50 (SF-539): 19.1 µM (inactive)
- GI50 (SK-MEL-28): 18.5 µM (inactive)
- GI50 (SK-MEL-2): 21.7 µM (inactive)
- GI50 (SK-MEL-5): 17.3 µM (inactive)
- GI50 (SK-OV-3): 17.5 µM (inactive)
- GI50 (SN12C): 19.4 µM (inactive)
- GI50 (SNB-19): 18.2 µM (inactive)
- GI50 (SNB-75): 11.1 µM (inactive)
- GI50 (SR): 31.3 µM (inactive)
- GI50 (SW-620): 16.2 µM (inactive)
- GI50 (T47D): 12 µM (inactive)
- GI50 (TK-10): 18.3 µM (inactive)
- GI50 (U-251): 15.1 µM (inactive)
- GI50 (UACC-257): 16.5 µM (inactive)
- GI50 (UACC-62): 14.8 µM (inactive)
- GI50 (UO-31): 19.1 µM (inactive)
